According to US8389236B2, “Assay” (Otago Innovation Limited, priority 2005, dated 2013):

Assays:
[1] = test system: HIV-1 gag/pol −1 frameshift signal sequence (HIV-1 frameshift construct); test: Stably transfected dual fluorescent reporter recoding assay in Flp-In CV1 cells (−1 frame construct); assay type: cell-based; settings: for DsRed/EGFP ratio / Percentage decrease in ratio / Minus 1 Frameshift Construct EGFP signal, Average / Minus 1 Frameshift Construct DsRed signal, Average: 120 hours; for DsRed/EGFP ratio / Percentage decrease in ratio: stable Flp-In CV1 cells; for DsRed/EGFP ratio: not normalised to Null 0, expressed as a percentage; for Percentage decrease in ratio: vs no drug; for Minus 1 Frameshift Construct EGFP signal, Average: 485 excitation 515 emission; for Minus 1 Frameshift Construct DsRed signal, Average: 535 excitation 590 emission
Method: The translational recoding construct described above was excised via Hind III and Not I restrictions sites and ligated into a Flp-In™ pcDNA5/FRT expression vector (Invitrogen Life Technologies) before being stably transformed into Flp-In™ CV1 cells (Invitrogen Life Technologies) according to the manufacturer's instructions.
Flp-In CV1 cells (CV1 cells), as described in Example 2, transfected with the −1 frame construct, and untransfected CV1 cells were grown, harvested, trypsinised, washed and diluted to 1×10^5 cells/ml all under standard conditions.
Cells were then seeded in 96 well plates under standard conditions. The plates were then incubated for 120 hours at 37° C.
(§1) The cells were washed 3 times with Phosphate Buffered Saline (PBS) to remove any traces of culture medium. 100 ul of Passive Lysis buffer (Promega) was added. The cells were frozen. The frozen cells were then thawed and fluorescence intensity was read in the Tecan Genios Pro plate reader.
Plate reader setting were as follows:
Filters 485 excitation, 515 emission
Filters 535 excitation, 590 emission
As a Null 0 frameshift construct was not used in this experiment ratios of the DsRed to EGFP signal were calculated to take into account the decrease in the EGFP signal with increasing drug concentrations.
The calculation was similar to example 3, with the counts averaged, the control cell counts removed before working out the ratio of the DsRed signal to the EGFP signal. Normalisation using a Null 0 frame construct could not be performed, with the results below being expressed as a percentage. The calculation was a follows: [[DsRed signal: HIV-1 frameshift construct]/[EGFP signal: HIV-1 frameshift construct]]

[2] = test system: HIV-1 gag/pol −1 frameshift signal sequence (HIV-1 frameshift construct); test: Dual fluorescent reporter (EGFP/DsRed) recoding assay in transiently transfected COS-7 cells, with Null 0 control construct; assay type: cell-based; settings: for Minus 1 Frameshift Construct EGFP signal, Average / Null 0 Frameshift Construct EGFP signal, Average: 485 excitation 520-P emission; for Minus 1 Frameshift Construct DsRed signal, Average / Null 0 Frameshift Construct DsRed signal, Average: 525 excitation 600LP emission
Method: Mammalian COS-7 cells were grown, harvested, trypsinised, washed and diluted to 1×10^5 cells/ml all under standard conditions.
The diluted cells were then split into two equal portions. One portion was transiently transfected with the recoding construct, and other with the Null 0 frame control construct. Transient transfection was performed using 2 μL of FuGENE® 6 transfection reagent (Roche) and 500 ng of DNA for every mL of cells, in accordance with the manufacturing instructions.
Transfected cells were seeded in 24 well plates under standard conditions. Cycloheximide was added in triplicate at 50 nM and the plates were then incubated for 48 hours at 37° C.
as §1, with “and transferred to a 96 well plate, and” for “and”, “BMG PolarStar” for “Tecan Genios Pro”
Plate reader settings were as follows:
Filters 485 excitation, 520-P emission
Filters 544 excitation, 590 emission
[[DsRed signal: HIV-1 frameshift construct]/[EGFP signal: HIV-1 frameshift construct]]/[[DsRed signal: Null 0 frameshift construct]/[EGFP signal: Null 0 frameshift construct]]
The diluted cells were then split into two equal portions. One portion was transfected, as described in Example 3, with the recoding construct, and other with the Null 0 frame control construct.
Cells were then seeded in 24 well plates under standard conditions. Anisomycin was added in triplicate at 50 nM and the plates were then incubated for 48 hours at 37° C.
The cells were prepared as described in examples 3 and 4.
DsRed signal at 525 excitation, 600LP emission
EGFP signal at 485 excitation, 520-P emission
Frameshift figures, shown in Table 5, were calculated using the formula shown in Example 3 using data from Tables 1, 2, 3 and 4.
Transfected cells were prepared as described in Example 5, and treated with 0 nM (no drug) 100 nM, 200 nM, 300 nM, 400 nM and 500 nM concentrations of anisomycin.
Incubation, plate reader setting and readings were as described in Example 5.
For the anisomycin titrations, the frameshift figures, shown in Table 10, were calculated using the formula shown in Example 3 using data from Tables 6, 7, 8 and 9.

[3] = 50 nM, 48 hours, 485 excitation, 520-P emission
[4] = 50 nM, 48 hours, 544 excitation, 590 emission
[5] = 100 nM, COS-7, 525/600LP filters, vs no drugs

With `COc1ccc(C[C@H]2NC[C@H](O)[C@H]2OC(C)=O)cc1` [Anisomycin] the DsRed/EGFP ratio ([1]; 50 nM) was 7.81%, the “Percentage decrease in ratio” value ([1]; 50 nM) was −1.47% and the “Minus 1 Frameshift Construct EGFP signal, Average” value ([1]; 50 nM) was 12588. The “Minus 1 Frameshift Construct DsRed signal, Average” value ([1]; 50 nM) was 1348, the DsRed/EGFP ratio ([1]; 100 nM) was 7.60% and the “Percentage decrease in ratio” value ([1]; 100 nM) was 1.17%. For the same compound, the “Minus 1 Frameshift Construct EGFP signal, Average” value ([1]; 100 nM) was 12188, the “Minus 1 Frameshift Construct DsRed signal, Average” value ([1]; 100 nM) was 1301 and the DsRed/EGFP ratio ([1]; 500 nM) was 1.44%. For the same compound, the “Percentage decrease in ratio” value ([1]; 500 nM) was 81.34%, the “Minus 1 Frameshift Construct EGFP signal, Average” value ([1]; 500 nM) was 8977 and the “Minus 1 Frameshift Construct DsRed signal, Average” value ([1]; 500 nM) was 795. For the same compound, the DsRed/EGFP ratio ([1]; 1000 nM) was −0.81%, the “Percentage decrease in ratio” value ([1]; 1000 nM) was 110.53% and the “Minus 1 Frameshift Construct EGFP signal, Average” value ([1]; 1000 nM) was 8386. For the same compound, the “Minus 1 Frameshift Construct DsRed signal, Average” value ([1]; 1000 nM) was 704, the DsRed/EGFP ratio ([1]; 2000 nM) was −3.13% and the “Percentage decrease in ratio” value ([1]; 2000 nM) was 140.70%. The “Minus 1 Frameshift Construct EGFP signal, Average” value ([1]; 2000 nM) was 7681, the “Minus 1 Frameshift Construct DsRed signal, Average” value ([1]; 2000 nM) was 641 and the “% decrease in ratio over concentration range” value ([1]; range between 50 nM and 2000 nM, stable cells, result in words) was “dose responsive effect”. For the same compound, the “decrease in frameshift from the original (no drug) value” ([2]; 50 nM, 48 hours, COS-7, 544/590 filters) was 5.3%, the Frameshift ([2]; 50 nM, 48 hours, COS-7, DsRed 544 excitation/590 emission, EGFP 485/520-P, normalised to Null 0 construct) was 5.64% and the “absolute change frameshift efficiency” value ([2]; 50 nM, 48 hours, COS-7, vs no drug control, 544/590 filters) was 0.32%. The “EGFP signal, HIV-1 frameshift construct, average” value [2, 3] was 32666 RFU, the “EGFP signal, HIV-1 frameshift construct, average minus control” value [2, 3] was 32336 RFU and the “EGFP signal, Null 0 frameshift construct, average” value [2, 3] was 56491 RFU. The “EGFP signal, Null 0 frameshift construct, average minus control” value [2, 3] was 56161 RFU, the “DsRed signal, HIV-1 frameshift construct, average” value [2, 4] was 1975 RFU and the “DsRed signal, HIV-1 frameshift construct, average minus control” value [2, 4] was 1891 RFU. The “DsRed signal, Null 0 frameshift construct, average” value [2, 4] was 58293 RFU, the “DsRed signal, Null 0 frameshift construct, average minus control” value [2, 4] was 58209 RFU and the “Minus 1 Frameshift Construct EGFP signal, Average” value ([2]; 100 nM) was 31923. The “Null 0 Frameshift Construct EGFP signal, Average” value ([2]; 100 nM) was 55732, the “Minus 1 Frameshift Construct DsRed signal, Average” value ([2]; 100 nM) was 3072 and the “Null 0 Frameshift Construct DsRed signal, Average” value ([2]; 100 nM) was 55345. The “Percentage decrease in frameshift” value [2, 5] was 1.39%, the “absolute change in frameshift efficiency” value [2, 5] was 0.11% and the “Percentage decrease in frameshift” value ([2]; 100 nM, COS-7, 525/600LP filters, vs no drugs, listed as anisomycin) was 1.4%. The Frameshift ([2]; 100 nM, COS-7, DsRed 525 excitation/600LP emission) was 7.89%, the Frameshift ([2]; 100 nM, COS-7, DsRed 525 excitation/600LP emission, listed as anisomycin) was 7.88% and the “Minus 1 Frameshift Construct EGFP signal, Average” value ([2]; 200 nM) was 37862. For the same compound, the “Null 0 Frameshift Construct EGFP signal, Average” value ([2]; 200 nM) was 51856, the “Minus 1 Frameshift Construct DsRed signal, Average” value ([2]; 200 nM) was 3555 and the “Null 0 Frameshift Construct DsRed signal, Average” value ([2]; 200 nM) was 50020. For the same compound, the “Percentage decrease in frameshift” value ([2]; 200 nM, COS-7, 525/600LP filters, vs no drugs) was −2.21%, the Frameshift ([2]; 200 nM, COS-7, DsRed 525 excitation/600LP emission) was 8.17% and the “Minus 1 Frameshift Construct EGFP signal, Average” value ([2]; 300 nM) was 32560. For the same compound, the “Null 0 Frameshift Construct EGFP signal, Average” value ([2]; 300 nM) was 38929, the “Minus 1 Frameshift Construct DsRed signal, Average” value ([2]; 300 nM) was 2995 and the “Null 0 Frameshift Construct DsRed signal, Average” value ([2]; 300 nM) was 36774. The “Percentage decrease in frameshift” value ([2]; 300 nM, COS-7, 525/600LP filters, vs no drugs) was 1.47%, the Frameshift ([2]; 300 nM, COS-7, DsRed 525 excitation/600LP emission) was 7.88% and the “Minus 1 Frameshift Construct EGFP signal, Average” value ([2]; 400 nM) was 18630. The “Null 0 Frameshift Construct EGFP signal, Average” value ([2]; 400 nM) was 18532, the “Minus 1 Frameshift Construct DsRed signal, Average” value ([2]; 400 nM) was 1804 and the “Null 0 Frameshift Construct DsRed signal, Average” value ([2]; 400 nM) was 16734. For the same compound, the “Percentage decrease in frameshift” value ([2]; 400 nM, COS-7, 525/600LP filters, vs no drugs) was 8.53%, the Frameshift ([2]; 400 nM, COS-7, DsRed 525 excitation/600LP emission) was 7.32% and the “Minus 1 Frameshift Construct EGFP signal, Average” value ([2]; 500 nM) was 9376. The “Null 0 Frameshift Construct EGFP signal, Average” value ([2]; 500 nM) was 8119, the “Minus 1 Frameshift Construct DsRed signal, Average” value ([2]; 500 nM) was 1121 and the “Null 0 Frameshift Construct DsRed signal, Average” value ([2]; 500 nM) was 7045. The “Percentage decrease in frameshift” value ([2]; 500 nM, COS-7, 525/600LP filters, vs no drugs) was 16.21%, the Frameshift ([2]; 500 nM, COS-7, DsRed 525 excitation/600LP emission) was 6.70% and the “effect on −1 frameshifting” value ([2]; result in words) was “antagonists to −1 frameshifting”.
